Values joined by “and” are separate entries in the source; they are usually repeats but may differ in a detail not shown here. Identical values can stand only once.
Experiments:
Assay in all cases: CTG-3D luminescence at 96 h relative to day-0 seeding control (ratio to day 0); higher = more growth / less cytotoxicity; PDxO 3D drug screen (set 2), 96 h, CTG-3D normalised to day-0 seeding control.
MDA-MB-231 = tested on: MDA-MB-231
HCI-023 = tested on: HCI-023 (organoid from a triple-negative breast cancer xenograft)
HCI-019 = tested on: HCI-019 (organoid from a triple-negative breast cancer xenograft)
HCI-012 = tested on: HCI-012 (organoid from a breast cancer xenograft)
HCI-008 = tested on: HCI-008 (organoid from a HER2-enriched breast cancer xenograft)

CC(=O)O[C@@]12CO[C@@H]1C[C@H](O)[C@@]1(C)C(=O)[C@H](O)C3=C(C)[C@@H](OC(=O)[C@H](O)[C@@H](NC(=O)OC(C)(C)C)c4ccccc4)C[C@@](O)([C@@H](OC(=O)c4ccccc4)[C@H]21)C3(C)C [docetaxel]
MDA-MB-231
Conditions | CTG-3D luminescence at 96 h
12.5 pM | 4.86 and 2.64
0.00025 µM | 3.88 and 2.58
0.005 µM | 3.24 and 2.69
0.1 µM | 2.84 and 2.47
1 µM | 3.11 and 2.65
10 µM | 3.34 and 2.92
100 µM | 1.24 and 1.2
625 fM | 4.81 and 2.82

CTG-3D luminescence at 96 h
Conditions | 12.5 pM | 0.00025 µM | 0.005 µM | 0.1 µM | 1 µM | 10 µM | 100 µM | 625 fM
HCI-008, days in culture: 325 | 1.01 | 1.46 | 1.35 | 1.91 | 2.06 | 1.53 | 0.0817 | 1.14
HCI-008, days in culture: 340 | 0.747 | 1.06 | 1.26 | 0.976 | 0.918 | – | 0.0677 | 0.77
HCI-008, days in culture: 354 | 1.16 | 1.01 | 1.5 | 1.16 | 0.508 | 1.23 | 0.211 | 0.885
HCI-008, days in culture: 382 | 1.56 | 1.35 | 0.719 | 0.823 | 0.446 | 0.547 | 0.0143 | 1.74
HCI-012, days in culture: 214 | 1.03 | 0.8 | 0.461 | 0.578 | 0.404 | 0.777 | 0.105 | 0.817
HCI-012, days in culture: 243 | 1.3 | 1.44 | 0.758 | 0.52 | 0.65 | 0.926 | 0.441 | 1.69
HCI-012, days in culture: 256 | 2.14 | 2.22 | 1.58 | 0.695 | 0.649 | 0.506 | 0.405 | 2.16
HCI-012, days in culture: 284 | 2.14 | 3.21 | 1.16 | 0.569 | 0.537 | 0.49 | 0.0331 | 4.21
HCI-019, days in culture: 173 | 1.24 | 0.84 | 0.655 | 1.38 | 0.99 | 0.699 | 0.368 | 0.768
HCI-019, days in culture: 194 | 1.66 | 2.03 | 0.858 | 0.59 | 0.552 | 0.764 | 0.27 | 3.06
HCI-019, days in culture: 215 | 1.52 | 0.972 | 0.281 | 0.399 | 0.342 | 0.484 | 0.0546 | 1.59
HCI-023, days in culture: 223 | 0.666 | 0.731 | 0.679 | 0.597 | 0.578 | 0.746 | 0.0587 | 0.745
HCI-023, days in culture: 238 | 0.654 | 0.598 | 0.69 | 0.7 | 0.901 | 0.651 | 0.265 | 0.619
HCI-023, days in culture: 252 | 1.03 | 0.858 | 0.757 | 1.04 | 0.812 | 1.27 | 0.603 | 1.14

COc1cccc2c1C(=O)c1c(O)c3c(c(O)c1C2=O)C[C@@](O)(C(=O)CO)C[C@@H]3O[C@H]1C[C@H](N)[C@@H](O)[C@H](C)O1 [epirubicin]
MDA-MB-231
Conditions | CTG-3D luminescence at 96 h
12.5 pM | 5.46 and 4.99
0.00025 µM | 5.52 and 4.95
0.005 µM | 4.84 and 4.76
0.1 µM | 3.26 and 3.33
1 µM | 0.232 and 0.543
10 µM | 0.504 and 0.188
100 µM | -0.0125 and -0.0119
625 fM | 5.48 and 5.03

CTG-3D luminescence at 96 h
Conditions | 12.5 pM | 0.00025 µM | 0.005 µM | 0.1 µM | 1 µM | 10 µM | 100 µM | 625 fM
HCI-008, days in culture: 325 | 1.57 | 2.58 | 1.67 | 1.91 | 0.784 | 0.192 | -0.00523 | 1.81
HCI-008, days in culture: 340 | 1.38 | 1.84 | 1.52 | 1 | 0.612 | – | -0.0051 | 1.34
HCI-008, days in culture: 354 | 1.58 | 0.918 | 1.45 | 0.732 | 0.524 | 0.2 | 0.00146 | 1.46
HCI-008, days in culture: 382 | 1.97 | 1.33 | 1.3 | 1.6 | 0.222 | 0.161 | -0.000657 | 1.49
HCI-012, days in culture: 214 | 2.15 | 2.5 | 1.28 | 0.214 | 0.0452 | 0.0186 | -0.0053 | 5.03
HCI-012, days in culture: 243 | 1.9 | 2.59 | 1.74 | 0.228 | 0.0532 | 0.0739 | -0.006 | 2.23
HCI-012, days in culture: 256 | 1.75 | 2.22 | 1.73 | 0.43 | 0.059 | 0.0309 | -0.0077 | 2.4
HCI-012, days in culture: 284 | 1.9 | 2.3 | 1.39 | 0.413 | 0.0294 | 0.0662 | -0.00241 | 3.07
HCI-019, days in culture: 173 | 2.56 | 0.82 | 0.796 | 0.682 | 0.176 | 0.0215 | -0.00415 | 2.04
HCI-019, days in culture: 194 | 1.08 | 1.73 | 0.897 | 0.514 | 0.126 | 0.00997 | -0.00363 | 2.03
HCI-019, days in culture: 215 | 1.08 | 1.32 | 1.32 | 0.384 | 0.205 | 0.0145 | -0.000778 | 1.97
HCI-023, days in culture: 223 | 1.88 | 1.76 | 1.22 | 1.3 | 0.154 | 0.0393 | -0.00401 | 2.21
HCI-023, days in culture: 238 | 1.44 | 1.08 | 0.842 | 0.9 | 0.391 | 0.0393 | -0.00422 | 1.61
HCI-023, days in culture: 252 | 2.29 | 2.32 | 1.59 | 1.68 | 0.516 | 0.0524 | -0.00328 | 1.99
